Measured values from patent US20240199624A1, “COMPOUNDS, COMPOSITIONS, AND METHODS” (CHDI Foundation, Inc., priority 2022, published 2024).
pIC50: −log10 of the molar value.

Columns and labels:
[1] = P33 SPA counter assay (absence of enzyme); conditions: interference with detection system
Method: P33 SPA counter assay: This assay was used in the absence of enzyme to determine whether the test compound interferes with the detection system. Otherwise, the same protocol and assay buffer as in the main SPA assay were applied (25 mM HEPES pH=7.5, 150 mM KCl, 2 mM MgCl2, 2 mM GSH, 0.01% Tween-20) and instead of enzyme addition, assay buffer was added. Hydrolysis of substrate (γ-[^33P]-ATP, 0.1 nM; Hartmann Analytic, FF-301; and cold ATP, 10 μM) to a similar level as under enzymatic conditions was achieved by incubation at 50° C. for 4 days. Decay of [^33P] with a half-life of 25.4 days was corrected by increasing the concentration of the labelled nucleotide with the appropriate factor; all steps with radioactive ATP were conducted behind appropriate shielding. After addition of pre-treated ATP substrate (10 μL) to the compounds and addition of buffer (10 μL, instead of enzyme), 20 μL of a 1:2 mix of ammonium molybdate (20 mg/mL Ammonium molybdate in 2.4M HCl) and SPA beads (ProteinA SPA beads from Perkin Elmer Cat #RPNQ0019 at 7.5 mg/mL+1% azide) was added per well and incubated at RT for 2 min. Then, 40 μL of 7 M CsCl and 0.1 M citrate was added per well and incubated for 1 h at room temperature before measuring on the MicroBeta (top read mode, 1 min per well). For full plate processing, all reagents were transferred with a pipettor (Selma, CyBio) apart from the final reagent (CsCl+citrate) which was added with a dispenser (MultiFlo, BioTek). Data analysis during assay development was done with Prism GraphPad, and IC50 fitting for whole compound plates was done with the in-house software Aplus.

human MutSbeta [2] = target: T1, human MutSbeta (Homo sapiens, UniProt P20585+P43246); assay: ADP Glo assay 1.1; type: biochemical; conditions: SPA buffer, no Ovalbumin; enzyme added to compounds before ATP; read-out: ADP Gol 1.1 assay IC50
T1 construct: Msh2(1-934), Gene ID NP_000242.1; Msh3(1-1137), Gene ID J04810.1
T1 sequence (P43246 whole entry): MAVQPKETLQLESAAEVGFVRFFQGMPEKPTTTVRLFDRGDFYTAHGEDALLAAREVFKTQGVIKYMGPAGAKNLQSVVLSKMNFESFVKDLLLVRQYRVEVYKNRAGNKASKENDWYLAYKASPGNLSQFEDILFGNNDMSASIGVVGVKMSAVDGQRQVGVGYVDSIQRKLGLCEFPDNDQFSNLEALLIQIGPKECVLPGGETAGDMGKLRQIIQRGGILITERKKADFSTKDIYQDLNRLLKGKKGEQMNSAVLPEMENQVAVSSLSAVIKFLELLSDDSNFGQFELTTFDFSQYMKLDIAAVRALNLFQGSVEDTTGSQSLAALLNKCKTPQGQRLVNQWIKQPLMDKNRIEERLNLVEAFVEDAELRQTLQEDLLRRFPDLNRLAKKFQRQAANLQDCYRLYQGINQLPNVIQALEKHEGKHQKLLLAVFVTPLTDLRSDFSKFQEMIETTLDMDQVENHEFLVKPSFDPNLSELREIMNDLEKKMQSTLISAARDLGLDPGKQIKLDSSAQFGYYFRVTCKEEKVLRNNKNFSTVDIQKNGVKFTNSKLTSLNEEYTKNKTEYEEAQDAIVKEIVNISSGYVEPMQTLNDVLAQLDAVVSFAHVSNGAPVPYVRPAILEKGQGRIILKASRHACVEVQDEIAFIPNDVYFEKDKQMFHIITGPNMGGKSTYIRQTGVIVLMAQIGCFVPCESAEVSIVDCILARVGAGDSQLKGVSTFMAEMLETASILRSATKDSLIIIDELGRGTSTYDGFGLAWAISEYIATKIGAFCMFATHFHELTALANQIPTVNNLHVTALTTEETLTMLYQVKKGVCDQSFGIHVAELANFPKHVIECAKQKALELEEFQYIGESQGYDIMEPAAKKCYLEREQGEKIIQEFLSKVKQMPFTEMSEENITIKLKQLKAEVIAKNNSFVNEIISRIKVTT
T1 sequence (P20585 whole entry): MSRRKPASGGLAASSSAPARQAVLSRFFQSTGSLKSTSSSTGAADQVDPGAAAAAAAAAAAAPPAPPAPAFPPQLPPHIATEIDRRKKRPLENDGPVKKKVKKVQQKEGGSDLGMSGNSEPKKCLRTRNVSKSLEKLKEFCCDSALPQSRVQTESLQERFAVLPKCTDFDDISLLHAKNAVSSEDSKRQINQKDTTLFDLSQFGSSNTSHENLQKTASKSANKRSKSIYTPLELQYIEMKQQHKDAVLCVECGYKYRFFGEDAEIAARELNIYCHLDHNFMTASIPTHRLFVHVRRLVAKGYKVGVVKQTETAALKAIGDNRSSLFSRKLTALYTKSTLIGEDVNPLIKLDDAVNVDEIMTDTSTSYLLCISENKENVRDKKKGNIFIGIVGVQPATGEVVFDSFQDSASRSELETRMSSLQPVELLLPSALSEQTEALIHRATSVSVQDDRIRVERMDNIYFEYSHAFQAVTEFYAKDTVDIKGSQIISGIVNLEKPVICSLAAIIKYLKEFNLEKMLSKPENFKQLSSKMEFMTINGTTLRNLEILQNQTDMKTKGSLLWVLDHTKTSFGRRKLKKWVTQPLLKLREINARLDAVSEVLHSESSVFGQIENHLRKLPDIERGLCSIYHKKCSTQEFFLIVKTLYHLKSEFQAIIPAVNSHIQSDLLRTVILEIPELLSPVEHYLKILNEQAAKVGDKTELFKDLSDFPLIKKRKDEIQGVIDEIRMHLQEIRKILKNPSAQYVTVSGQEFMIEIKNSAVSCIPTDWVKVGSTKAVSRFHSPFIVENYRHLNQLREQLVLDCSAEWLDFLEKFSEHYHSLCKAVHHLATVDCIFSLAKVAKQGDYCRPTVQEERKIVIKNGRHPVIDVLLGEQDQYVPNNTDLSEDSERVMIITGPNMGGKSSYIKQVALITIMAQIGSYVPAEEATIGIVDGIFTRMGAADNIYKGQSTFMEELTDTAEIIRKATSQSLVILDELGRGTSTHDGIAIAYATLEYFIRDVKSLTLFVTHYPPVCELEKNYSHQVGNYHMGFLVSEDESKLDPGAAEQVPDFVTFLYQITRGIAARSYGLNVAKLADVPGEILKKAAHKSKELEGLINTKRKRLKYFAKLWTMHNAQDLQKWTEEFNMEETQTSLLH
Method: ADP Glo assay 2.1: Enzyme human MutSbeta (Msh2(1-934), Gene ID NP_000242.1, Msh3(1-1137), Gene ID J04810.1) with 22 bp biotin-labeled DNA containing a GT-mismatch (purchased from Curia Global, TOP 5′-[…]-3′; BOT 3′-AGTAGCTAGGC - - - CGAAGTCTACC-5′-Biotin) was pre-incubated in assay buffer (25 mM HEPES pH=7.5, 150 mM KCl, 5 mM MgCl2, 5 mM GSH, 0.1% Pluronic F-127, 0.2% Ovalbumin) to allow formation of the enzyme-DNA complex. Plates with spotted compounds in serial dilutions in DMSO (80 nL) were filled with ATP (2 μL, 10 μM final concentration) followed by an incubation of 30 min at RT. Then, enzyme was added (2 μL, 7 nM final concentration) and the reaction was allowed to proceed for 60 min at 37° C. After the ATPase reaction, the commercially available “ADP-Glo Reagent” was added (incubate 40 min at RT) to deplete remaining ATP via the activity of […]. Subsequently, the commercially available “Kinase Detection Reagent” converted ADP to ATP via the activity of PEP and Pyruvate kinase. The ATP was then converted into light by Ultra-Glo Luciferase. The obtained luminescence was proportional to the ADP concentration generated during the initial ATPase reaction. The luminescence signal was measured with an Envision reader, raw data were analyzed towards controls (full reaction=0% inhibition; no reaction in absence of enzyme=100% inhibition) and IC50 curves were analyzed with the inhouse software Aplus.
ADP Glo assay 1.1: The ADP Glo 2.1 assay was adapted to enable assessment of a more direct interaction of the compound with the enzyme: (1) the SPA buffer was applied (25 mM HEPES pH=7.5, 150 mM KCl, 2 mM MgCl2, 2 mM GSH, 0.01% Tween-20) which contained no decoy Ovalbumin protein. (2) The order of reagent addition was changed, and enzyme was now added directly to the spotted compounds before addition of ATP.

human MutSbeta [3] = target: T1, human MutSbeta; assay: P33 SPA; type: biochemical; conditions: ATP added to compounds first, then enzyme with DNA; 2 μM ATP, 7 nM enzyme, 60 min 37° C.
Method: P33 SPA: Enzyme human MutSbeta (Msh2(1-934), Gene ID NP_000242.1, Msh3(1-1137), Gene ID J04810.1) and 22 bp biotin-labeled DNA containing a GT-mismatch (purchased from Curia Global, TOP 5′-[…]-3′; BOT 3′-AGTAGCTAGGC - - - CGAAGTCTACC-5′-Biotin) were pre-incubated at equimolar concentration for 15 min at room temperature (“RT”) in assay buffer (25 mM HEPES pH=7.5, 150 mM KCl, 2 mM MgCl2, 2 mM GSH, 0.01% Tween-20). ATP (10 μL, 2× final concentration of γ-[^33P]-ATP (final 0.1 nM; Hartmann Analytic, FF-301) and cold ATP (final 2 μM)) was added to compounds (400 nL spotted as concentration response in 100% DMSO into wells of an OptiPlate) and pre-incubated for 30 min at RT. Then, enzyme with DNA was added (10 μL, 2× final concentration of 7 nM) and incubated for 60 min at 37° C. in a total volume of 20 μL per well. Decay of [^33P] with a half-life of 25.4 days was corrected by increasing the concentration of the labelled nucleotide with the appropriate factor; all steps with radioactive ATP were conducted behind appropriate shielding. Then, 20 μL of a 1:2 mix of ammonium molybdate (20 mg/mL Ammonium molybdate in 2.4 M HCl) and SPA beads (ProteinA SPA beads from Perkin Elmer Cat #RPNQ0019 at 7.5 mg/mL+1% azide) was added per well and incubated at RT for 2 min. Then, 40 μL of 7 M CsCl and 0.1 M citrate was added per well and incubated for 20 h at RT before measuring on the MicroBeta (top read mode, 1 min per well). For full plate processing, all reagents were transferred with a pipettor (Selma, CyBio) apart from the final reagent (CsCl+citrate) which was added with a dispenser (MultiFlo, BioTek). Data analysis during assay development was done with Prism GraphPad.

Row | pIC50 [1] | pIC50 (human MutSbeta [2]) | pIC50 (human MutSbeta [3]) | Structure (SMILES)
1 | < 3.70 | 4.26 | 4.54 | Cc1ccc(Nc2nc(N3CCN(C)CC3)nc3nccnc23)cc1C [Compound 2, N-(3,4-dimethylphenyl)-2-(4-methylpiperazin-1-yl)pteridin-4-amine]
2 | < 3.70 | 4.19 | 4.62 | CCN1CCN(c2nc(Nc3ccc(Cl)cc3)c3nccnc3n2)CC1 [Compound 4, N-(4-Chlorophenyl)-2-(4-ethylpiperazin-1-yl)pteridin-4-amine]
